How the values were obtained:
[1] = Rate of dissolution of docetaxel forms in acetonitrile; assay type: physicochemical; conditions: 5 mg/mL (anhydrous basis)
Experimental: To compare if the different types of docetaxel material had different solubility profiles as a result of their different structures, their solubility rates were compared in the solvent acetonitrile. Acetonitrile was added to a fixed amount of docetaxel from different suppliers to obtain a concentration of 5 mg/mL (anhydrous basis). The rate at which dissolution of the different docetaxels occurred was observed. It was observed that the anhydrous docetaxels (from 2 different suppliers) dissolved completely in less than 1 minute. […] Under these further diluted conditions, the time to dissolve was between 5 and 10 minutes for the hydrated materials. A similar observation was made when using the solvent chloroform.

[2] = Stability of docetaxel forms dissolved in Tween 80; assay type: physicochemical; conditions: 40 mg/mL (on anhydrous basis) in Tween 80, after a few days
Experimental: It is well known that docetaxel is formulated with Tween 80 as a solubilizer or emulsifier for the commercial product Taxotere. The different docetaxels were dissolved in Tween 80 at a concentration of 40 mg/mL (on anhydrous basis). […] Thus, the anhydrous docetaxel is preferred in the Tween formulation. In addition it may be useful to use a Tween 80 or equivalent surfactant that is anhydrous or very low in water content as the anhydrous form of docetaxel may absorb water to form the hydrated form which could result in precipitation.

Time to dissolve completely [1] | Sediment or precipitate in Tween 80 solution [2] | Dissolution (observation) [1] | SMILES
less than 1 minute | no precipitate was observed |  | CC(=O)O[C@@]12CO[C@@H]1C[C@H](O)[C@@]1(C)C(=O)[C@H](O)C3=C(C)[C@@H](OC(=O)[C@H](O)[C@@H](NC(=O)OC(C)(C)C)c4ccccc4)C[C@@](O)([C@@H](OC(=O)c4ccccc4)[C@H]21)C3(C)C [anhydrous docetaxel, docetaxel]
 |  | did not readily dissolve | CC(=O)O[C@@]12CO[C@@H]1C[C@H](O)[C@@]1(C)C(=O)[C@H](O)C3=C(C)[C@@H](OC(=O)[C@H](O)[C@@H](NC(=O)OC(C)(C)C)c4ccccc4)C[C@@](O)([C@@H](OC(=O)c4ccccc4)[C@H]21)C3(C)C [partial hydrate, docetaxel hemihydrate]
